Measurements from US10450549B2, “Aryloxyphenoxypropionate tolerance in turfrgass species and use of AAD1 as a selectable marker” (Dow AgroSciences, LLC, priority 2004, dated 2019).

What was measured:
[1] = system: non-transformed (NT) ‘Shamrock’ Kentucky bluegrass; experiment: Haloxyfop-R-methyl on non-transformed Kentucky bluegrass controls; format: in vivo; conditions: similar treatment regimes
Procedure: The selected T0 plants were sprayed with haloxyfop-R-methyl (Gallant Super®, DOW AGROSCIENCES, INC.) at rates ranging from 140 to 560 g ae/ha. […] This rate would also control susceptible monocot weed species. Measured amounts were placed individually in 25 mL glass vials and dissolved in a 12 mL volume of 1.0% (v/v) Agri-Dex® Crop Oil Concentrate (COC).
Spray solutions were applied to the plant material with an overhead Mandel™ track sprayer equipped with a 8002E nozzles calibrated to deliver 187 L/ha over an application area of 0.503 square meters (m^2) at a spray height of 18 inches (46 cm) above average plant canopy height. Control plants were sprayed in the same manner with the COC blank.
The treated plants and control plants were placed in a greenhouse and watered by sub-irrigation to prevent wash-off of the test compounds. At various times after application, the condition of the test plants as compared with that of the untreated plants was determined visually and scored on a scale of 0 to 100 percent, where 0 corresponds to no injury or growth inhibition, and 100 corresponds to complete kill. Regenerated, non-transformed (NT) ‘Shamrock’ Kentucky bluegrass plants and/or seed-derived clonally propagated plants served as haloxyfop sensitive controls.

[2] = system: ‘Justice’ tall fescue transgenic events; experiment: Quizalofop on AAD1 ‘Justice’ tall fescue plants; format: in vivo; conditions: written in present tense
Procedure: ‘Justice’ tall fescue transgenic plants events were selected on tissue culture media containing quizalofop, and confirmed via PCR amplification of an inserted T-strand.
A growth medium was prepared by mixing Promix® and sand in a 2 to 1 ratio. The medium was contained in plastic pots. When required to maintain plant health, a fungicide, insecticide, and/or other chemical or physical treatment was applied to stock plants. The plants were maintained in a greenhouse and treated with fertilizer and growth supplements as needed and water was added on a regular basis. Supplemental lighting was provided.
The selected T0 plants are sprayed with quizalofop at rates ranging in concentration, beyond the typical in field usage rate. This rate structure is selected based on the GR90 (herbicide rate which produces 90% injury and/or growth inhibition) and the rate that would also control susceptible monocot weed species. […]
The treated plants and control plants are placed in a greenhouse and watered by sub-irrigation to prevent wash-off of the test compounds. At various times after application, the condition of the test plants as compared with that of the untreated plants is determined visually and scored on a scale of 0 to 100 percent, where 0 corresponds to no injury or growth inhibition, and 100 corresponds to complete kill. […]

[3] = system: T2 lineages from 3404 transformations; experiment: Quizalofop tolerance with respect to AAD1 (v3) expression in T2 3404 lineages; format: in vivo, corn
[4] = system: AAD2 (v1)-transformed T1 Arabidopsis; experiment: T1 Arabidopsis response to postemergence herbicide, % visual injury 2 WAT: native AAD2 (v1) transformants; format: in vivo, Arabidopsis thaliana; conditions: Native AAD2 gene
Source text: Table 16. […] Response is presented in terms of % visual injury 2 WAT. […] Since each T1 is an independent transformation event, one can expect significant variation of individual T1 responses within a given rate. An arithmetic mean and standard deviation is presented for each treatment. The range in individual response is also indicated in the last column for each rate and transformation. PAT/Cry1F-transformed Arabidopsis served as an auxin-sensitive transformed control. Wildtype Arabidopsis is untransformed.
Freshly harvested T1 seed transformed with a native [AAD1 (v2)], plant optimized [AAD1 (v3)], or native AAD2 (v1) gene was allowed to dry for 7 days at room temperature. T1 seed was sown in 26.5×51-cm germination trays (T.O. Plastics Inc., Clearwater, Minn.), each receiving a 200 mg aliquots of stratified T1 seed (˜10,000 seed) that had previously been suspended in 40 ml of 0.1% agarose solution and stored at 4° C. for 2 days to complete dormancy requirements and ensure synchronous seed germination.
Sunshine Mix LP5 (Sun Gro Horticulture Inc., Bellevue, Wash.) was covered with fine vermiculite and subirrigated with Hoagland's solution until wet and then allowed to gravity drain. Each 40 ml aliquot of stratified seed was sown evenly onto the vermiculite with a pipette and covered with humidity domes (KORD Products, Bramalea, Ontario, Canada) for 4-5 days. Domes were removed 1 day prior to initial transformant selection using glufosinate postemergence spray (selecting for the co-transformed PAT gene).
Five to six days after planting (DAP) and again 10 DAP, T1 plants (cotyledon and 2-4-1f stage, respectively) were sprayed with a 0.2% solution of Liberty herbicide (200 g ai/L glufosinate, Bayer Crop Sciences, Kansas City, Mo.) at a spray volume of 10 ml/tray (703 L/ha) using a DeVilbiss compressed air spray tip to deliver an effective rate of 280 g ai/ha glufosinate per application. Survivors (plants actively growing) were identified 5-7 days after the final spraying and transplanted individually into 3-inch pots prepared with potting media (Metro Mix 360). Transplanted plants were covered with humidity domes for 3-4 days and placed in a 22° C. growth chamber as before. Domes were subsequently removed and plants moved to the greenhouse (22+5° C., 50+30% RH, 14 hours light:10 dark, minimum 500 μE/m^2s^1 natural+supplemental light) at least 1 day prior to testing for the ability of AAD1 (v3), AAD1 (v2), or AAD2 (v1) to provide phenoxy auxin herbicide resistance.
Random individual T1 plants selected for glufosinate resistance above were confirmed for expression of the PAT protein using a PAT ELISA kit (Part no. 7000045, Strategic Diagnostics, Inc., Newark, Del.) to non-destructively confirm fidelity of selection process (manufacturer's protocol).
Herbicide applications were applied by track sprayer in a 187 L/ha spray volume.

AAD2 (v1) = AAD2 (v1) (Bradyrhizobium diazoefficiens, UniProt Q89UC4); experiment: Colorimetric phenol assay of AAD2 (v1) E. coli extract / partially purified enzyme; format: biochemical, Bradyrhizobium japonicum

With `CC(Oc1ccc(Oc2ncc(C(F)(F)F)cc2Cl)cc1)C(=O)O` (stereo not shown) [haloxyfop] the “injury of control, non-transgenic plants” value [1] was 60-100%.

`C[C@@H](Oc1ccc(Oc2cnc3cc(Cl)ccc3n2)cc1)C(=O)O` [quizalofop] was tested, and the “injury of tall fescue events compared to non-transgenic control plants” value [2] was “less injury” and the “highest level tested at which corn expressing AAD1 (v3) is protected from injury” value [3] was 2,240 g/ha.

In the case of `O=C(O)COc1ccc(Cl)cc1Cl` [2,4-D, 2,4-dichlorophenoxyacetic acid], the “% Injury Ave” value ([4]; 50 g ae/ha) is reported as 68.2%, the “individuals with 20-40% injury” value ([4]; 50 g ae/ha) is reported as 2 and the “individuals with <20% injury” value ([4]; 50 g ae/ha) is reported as 1. The “individuals with >40% injury” value ([4]; 50 g ae/ha) was 11, the “individuals with 20-40% injury” value ([4]; 200 g ae/ha) was 3 and the “individuals with <20% injury” value ([4]; 200 g ae/ha) was 0. For the same molecule, the “individuals with >40% injury” value ([4]; 200 g ae/ha) was 11, the “% Injury Ave” value ([4]; 800 g ae/ha) was 99.8% and the “individuals with 20-40% injury” value ([4]; 800 g ae/ha) was 0. The “individuals with <20% injury” value ([4]; 800 g ae/ha) was 0, the “individuals with >40% injury” value ([4]; 800 g ae/ha) was 14 and the “Vmax (A510 units)” value (AAD2 (v1); AAD2 (pDAB3202), MOPS pH 6.75) was 0.86 A510 units. The “apparent Vmax, AAD2 (v1)” value (AAD2 (v1); partially purified enzyme) was 0.86 A510 units.
